# Measurements from publication PMC4742234, “Screening of Drug Metabolizing Enzymes for the Ginsenoside Compound K In Vitro: An Efficient Anti-Cancer Substance Originating from Panax Ginseng” (PLoS ONE, 2016).
# “Also recorded” adds a separate entry of the source.
# Legend:
# CYP2E1 = biological target: T1, CYP2E1 (Homo sapiens, UniProt P05181); assay: Inhibition of CYP2E1 (chlorzoxazone 6-hydroxylation) by CK in HLMs; type: in vitro ADME
# T1 construct: tissue Cypex Ltd. (U.K.); host or cells: pooled human liver microsomes
# Procedure: (§1) The method was conducted according to our previous study with some modifications. The CYP isoform-specific probe reactions used were phenacetin O-deethylation (for CYP1A2), coumarin 7-hydroxylation (for CYP2A6), tolbutamide 4-hydroxylation (for CYP2C9), metoprolol α-hydroxylation (for CYP2D6), chlorzoxazone 6-hydroxylation (for CYP2E1),S-Mephenytoin 4-hydroxylation (for CYP2C19), and midazolam 1-hydroxylation (for CYP3A4). The kinetic study of CK was conducted with HLMs. A 0.2 mL incubation mixture that consisted of CK (as a substrate), the HLMs (0.5 mg/mL) or CYP isoforms (10 pmol), and 0.1 M sodium phosphate buffer (pH 7.4) was pre-warmed for 5 min at 37°C. The reaction was initiated by the addition of 1 mg/mL triphosphopyridine nucleotide (NADPH). All the reagents were dissolved in methanol, and the final solvent concentration in all incubations (including the controls) was 1%. The final incubations were performed in a shaking water bath (37°C) for 30 min. The reactions were stopped by adding 0.2 mL ice-cold acetonitrile, which contains irbesartan (114.9 ng/mL) as the internal standard. The samples were vortexed for 5 min. After centrifugation (12000×g for 10 min), the supernatants were transferred, and aliquots of 20 μL were injected into the HPLC-MS/MS system for analysis.
# (§2) CK (10–100 μM) and a single CYP isoform-specific substrate (with a concentration similar to its corresponding Kmvalue) were used to determine the inhibitory effect of CK on specific CYP isoforms as described in detail previously. Substrates including phenacetin, coumarin, tolbutamide, metoprolol, chlorzoxazone, S-Mephenytoin, and midazolam were used at concentrations of 10, 5, 100, 7.5, 40, 100, and 5 μM, respectively. All incubation conditions were the same as mentioned above. The inhibitory effects on the CYP isoforms were investigated individually by incubating the HLMs in the absence or presence of CK. […]
# CYP2D6 = biological target: T2, CYP2D6 (Homo sapiens, UniProt P10635); assay: Inhibition of CYP2D6 (metoprolol α-hydroxylation) by CK in HLMs; type: in vitro ADME
# T2 construct: tissue Cypex Ltd. (U.K.); host or cells: pooled human liver microsomes
# Procedure: as §1, §2
# [1] = Plasma pharmacokinetics of CK in healthy volunteers; conditions: male, human, 800 mg
# Procedure: Note that in our other study carried out in healthy volunteers, 10 healthy male volunteers received administrations of 800 mg pure CK tablets (100mg/tablet, provided by Zhejiang Hisun Pharmaceutical Company Limited, China) swallowed by 150 mL water, then series venous blood samples of 5 mL were collected into EDTA-containing tubes at 0, 0.25, 0.5, 1, 1.5, 2, 2.5, 3, 3.5, 4, 5, 6, 8, 12, 24, 36, 48, 72 and 96h. The plasma samples were analyzed by HPLC-MS/MS, the peak plasma concentration (Cmax) and time to peak plasma concentration (Tmax) were directly obtained from the observed concentration-time data. The area under the plasma concentration-time curve (AUC) from time zero to last measured concentration (AUC(0−t)) was calculated according to the linear trapezoidal rule, the estimate of oral clearance(CL/F) was calculated as CL/F = Dose /AUC(0–t).
# CYP1A2 = biological target: T3, CYP1A2 (Homo sapiens, UniProt P05177); assay: Inhibition of CYP1A2 (phenacetin O-deethylation) by CK in HLMs; type: in vitro ADME
# T3 construct: tissue Cypex Ltd. (U.K.); host or cells: pooled human liver microsomes
# T3 sequence (P05177 1-516): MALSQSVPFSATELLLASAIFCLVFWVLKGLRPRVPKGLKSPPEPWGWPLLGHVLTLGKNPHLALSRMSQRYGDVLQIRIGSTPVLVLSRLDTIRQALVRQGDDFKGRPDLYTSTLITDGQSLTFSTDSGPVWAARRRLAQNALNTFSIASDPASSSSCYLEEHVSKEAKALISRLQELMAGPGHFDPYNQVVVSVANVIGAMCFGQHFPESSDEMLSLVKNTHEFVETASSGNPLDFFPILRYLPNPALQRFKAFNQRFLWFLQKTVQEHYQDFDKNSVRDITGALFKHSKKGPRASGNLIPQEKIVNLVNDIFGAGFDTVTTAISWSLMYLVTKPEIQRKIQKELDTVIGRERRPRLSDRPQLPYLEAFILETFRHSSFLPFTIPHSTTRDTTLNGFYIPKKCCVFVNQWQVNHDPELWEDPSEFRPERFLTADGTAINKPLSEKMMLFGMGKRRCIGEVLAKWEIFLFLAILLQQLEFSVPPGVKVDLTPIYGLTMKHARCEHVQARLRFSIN
# Procedure: as §1, §2
# [2] = classified by IC50 according to Kong et al
# T2 sequence (P10635 whole entry): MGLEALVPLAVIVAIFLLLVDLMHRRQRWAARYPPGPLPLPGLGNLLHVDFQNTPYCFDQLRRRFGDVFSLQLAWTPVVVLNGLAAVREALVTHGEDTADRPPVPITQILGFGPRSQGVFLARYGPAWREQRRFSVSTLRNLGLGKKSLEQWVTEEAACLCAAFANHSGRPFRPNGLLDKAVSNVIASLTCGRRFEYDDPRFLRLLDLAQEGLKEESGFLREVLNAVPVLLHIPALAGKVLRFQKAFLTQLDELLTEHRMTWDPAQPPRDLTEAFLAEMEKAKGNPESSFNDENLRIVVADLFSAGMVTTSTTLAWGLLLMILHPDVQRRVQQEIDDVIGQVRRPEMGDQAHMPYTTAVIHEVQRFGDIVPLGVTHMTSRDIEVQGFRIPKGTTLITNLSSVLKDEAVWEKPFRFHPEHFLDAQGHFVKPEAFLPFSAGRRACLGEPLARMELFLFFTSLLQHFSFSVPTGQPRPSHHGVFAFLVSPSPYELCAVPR
# T1 sequence (P05181 whole entry): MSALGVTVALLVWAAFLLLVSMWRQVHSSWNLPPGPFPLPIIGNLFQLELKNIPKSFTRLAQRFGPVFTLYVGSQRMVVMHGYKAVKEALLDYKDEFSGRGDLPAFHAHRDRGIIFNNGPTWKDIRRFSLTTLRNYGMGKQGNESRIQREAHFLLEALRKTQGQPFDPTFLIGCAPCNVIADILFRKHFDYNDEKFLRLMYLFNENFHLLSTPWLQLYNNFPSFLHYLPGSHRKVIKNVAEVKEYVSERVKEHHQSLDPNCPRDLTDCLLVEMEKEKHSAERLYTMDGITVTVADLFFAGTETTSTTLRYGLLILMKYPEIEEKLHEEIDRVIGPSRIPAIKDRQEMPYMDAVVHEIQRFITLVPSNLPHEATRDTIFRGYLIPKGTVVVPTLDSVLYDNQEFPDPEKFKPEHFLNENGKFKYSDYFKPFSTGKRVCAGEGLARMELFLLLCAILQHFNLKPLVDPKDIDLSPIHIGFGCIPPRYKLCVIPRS
smiles,measurement,setting,value
"CC(C)=CCC[C@](C)(OC1O[C@H](CO)[C@@H](O)[C@H](O)[C@H]1O)[C@H]1CC[C@]2(C)[C@@H]1[C@H](O)C[C@@H]1[C@@]3(C)CC[C@H](O)C(C)(C)[C@@H]3CC[C@]12C (stereo partly drawn) [CK, 20-O-β-(D-glucopyranosyl)-20(S)-protopanaxadiol]",inhibitory effect on the activity of CYP2E1,"CYP2E1; HLMs, CK 10–100 μM",minimal; also recorded: negligible
same,IC50,"CYP2E1; HLMs, chlorzoxazone 40 μM, CK 10–100 μM",> 100 µM
same,inhibitor potency class for CYP2E1,CYP2E1; [2],"weak (weak, if IC50≥100 μg/mL or ≥50 μM)"
same,inhibitory effect on the activity of CYP2D6,"CYP2D6; HLMs, CK 10–100 μM",minimal; also recorded: negligible
same,IC50,"CYP2D6; HLMs, metoprolol 7.5 μM, CK 10–100 μM",> 100 µM
same,inhibitor potency class for CYP2D6,CYP2D6; [2],"weak (weak, if IC50≥100 μg/mL or ≥50 μM)"
same,Cmax,[1]; oral,~5 µM
same,Cmax,[1]; po,4.07 µM
same,inhibitory effect on the activity of CYP1A2,"CYP1A2; HLMs, CK 10–100 μM",minimal; also recorded: negligible
same,IC50,"CYP1A2; HLMs, phenacetin 10 μM, CK 10–100 μM",> 100 µM
same,inhibitor potency class for CYP1A2,CYP1A2; [2],"weak (weak, if IC50≥100 μg/mL or ≥50 μM)"
